Results taken from ChEMBL document CHEMBL4354832, “Discovery of a Covalent Inhibitor of KRASG12C (AMG 510) for the Treatment of Solid Tumors” (J Med Chem, 2020).
Values after ≈ are worked out from the molar mass of the structure shown. Active and inactive are the calls of the source. The rule behind the calls is not given here.

Assays:
[1] = Half life of compound at 25 degree C; format: physicochemical
[2] = Oral bioavailability in BALB/c mouse at 10 mg/kg; format: ADME, organism-based; conditions: in vivo
[3] = Protein binding in BALB/c mouse plasma assessed as unbound fraction by ultracentrifugation; format: ADME, cell-free
[4] = Half life in BALB/c mouse at 1 mg/kg, iv or 10 mg/kg, po; format: ADME, organism-based; conditions: in vivo
[5] = Clearance in BALB/c mouse at 1 mg/kg, iv or 10 mg/kg, po; format: ADME, organism-based; conditions: in vivo
[6] = Ratio of unbound plasma concentration in BALB/c mouse at 10 mg/kg to IC50 for inhibition of KRAS in human MIAPaca2 cells assessed as decrease in EGF-stimulated ERK1/2 phosphorylation preincubated for 2 hrs followed by EGF stimulation; format: organism-based; conditions: in vivo
[7] = biological target: GTPase KRas (Homo sapiens, UniProt P01116); test: Inhibition of KRAS in human MIAPaca2 cells assessed as decrease in EGF-stimulated ERK1/2 phosphorylation preincubated for 2 hrs followed by EGF stimulation; format: cell-based
[8] = biological target: GTPase KRas (Homo sapiens, UniProt P01116, C118A/G12C); test: Inhibition of GDP bound recombinant human His-tagged KRAS G12C/C118A mutant (1 to 169 residues) assessed as reduction in SOS1-mediated GDP/GTP nucleotide exchange by measuring the disruption between GDP-bound recombinant His-tagged KRAS G12C/C118A (1 to 169 residues) and Ras binding domain of GST-tagged c-RAF (1 to 149 residues) preincubated for 5 mins followed by SOS1 and GTP addition and further incubated for 30 mins by AlphaLISA assay
[9] = Solubility of compound in FaSSIF incubated for 48 to 72 hrs under shaking conditions by LCMS analysis; format: physicochemical
[10] = tested on: A549; test: Antiproliferative activity against human A549 cells harboring KRAS G12S point mutant assessed as cell growth inhibition after 72 hrs by Celltiter-Glo luminescent cell viability assay; format: functional, cell-based; conditions: A549, 72 h
[11] = Intrinsic clearance in human cryopreserved hepatocytes assessed per 10^6 cells at 0.5 uM measured upto 60 mins by LCMS analysis; format: ADME, cell-based, Hepatocyte; conditions: read-out: CLH
[12] = Solubility of compound in 0.01N HCl at pH 2 incubated for 48 to 72 hrs under shaking conditions by LCMS analysis; format: physicochemical
[13] = tested on: MIA PaCa-2; test: Antiproliferative activity against human MIAPaCa2 cells harboring KRAS G12C point mutant assessed as cell growth inhibition after 72 hrs by Celltiter-Glo luminescent cell viability assay; format: functional, cell-based; conditions: MIA PaCa-2, 72 h
[14] = Volume of distribution at steady state in BALB/c mouse at 1 mg/kg, iv or 10 mg/kg, po; format: ADME, organism-based; conditions: in vivo, read-out: Vdss
[15] = Intrinsic clearance in mouse cryopreserved hepatocytes assessed per 10^6 cells at 0.5 uM measured upto 60 mins by LCMS analysis; format: ADME, cell-based, Hepatocyte; conditions: read-out: CLH
[16] = Solubility of compound in PBS buffer at pH 7.4 incubated for 48 to 72 hrs under shaking conditions by LCMS analysis; format: physicochemical
[17] = Permeability of compound across apical to basolateral membrane in MDCK2 cells at 10 to 50 uM incubated for 2 hrs under shaking condition by LC-MS/MS analysis; format: ADME, cell-based, Canis lupus familiaris, MDCK-II; conditions: dog, MDCK; read-out: permeability
[18] = Half life of compound in aqueous phosphate buffer at pH 7.4 and at 37 degree C in presence of 5 mM GSH; format: physicochemical; conditions: aqueous phosphate buffer with 5 mM GSH
[19] = Half life in Beagle dog at 1 mg/kg, iv or 10 mg/kg, po; format: ADME, organism-based, Canis lupus familiaris; conditions: in vivo
[20] = Protein binding in plasma of BALB/c mouse assessed as unbound fraction at […] by ultracentrifugation; format: ADME
[21] = Clearance in Sprague-Dawley rat at 1 mg/kg, iv or 10 mg/kg, po; format: ADME, organism-based; conditions: in vivo
[22] = Oral bioavailability in Beagle dog at 10 mg/kg; format: ADME, organism-based, Canis lupus familiaris; conditions: in vivo
[23] = tested on: MIA PaCa-2; test: Antitumor activity against human MIAPaCa2 cells harboring KRAS G12C point mutant xenografted in athymic nude mouse assessed as tumor regression at 30 mg/kg, po qd measured after 26 days relative to control; format: functional
[24] = tested on: Mus musculus; test: Decrease in ERK1/ERK2 phosphorylation in human MIAPaCa2 cells xenografted in athymic nude mouse at > 10 mg/kg, po administered as single dose measured after 60 to 120 mins post-treatment; format: functional, organism-based
[25] = Protein binding in plasma of Sprague-Dawley rat assessed as unbound fraction at […] by ultracentrifugation; format: ADME, cell-free
[26] = tested on: MIA PaCa-2; test: Antitumor activity against human MIAPaCa2 cells harboring KRAS G12C point mutant xenografted in athymic nude mouse assessed as tumor growth inhibition at 10 mg/kg, po qd measured after 26 days relative to control; format: functional
[27] = Half life in Sprague-Dawley rat at 1 mg/kg, iv or 10 mg/kg, po; format: ADME, organism-based; conditions: in vivo
[28] = Time taken to achieve Cmax in plasma of athymic nude mouse xenografted with human MIAPaCa2 cells at > 10 mg/kg, po administered as single dose; format: ADME, organism-based; conditions: read-out: tCmax (converted)
[29] = Volume of distribution at steady state in Beagle dog at 1 mg/kg, iv or 10 mg/kg, po; format: ADME, organism-based, Canis lupus familiaris; conditions: in vivo, read-out: Vdss
[30] = Protein binding in plasma of human assessed as unbound fraction at […] by ultracentrifugation; format: ADME, cell-free
[31] = Time taken to achieve Cmax in tumor of athymic nude mouse xenografted with human MIAPaCa2 cells at > 10 mg/kg, po administered as single dose; format: ADME, organism-based, Neoplasm; conditions: read-out: tCmax (converted)
[32] = Volume of distribution at steady state in Sprague-Dawley rat at 1 mg/kg, iv or 10 mg/kg, po; format: ADME, organism-based; conditions: in vivo, read-out: Vdss
[33] = Clearance in Beagle dog at 1 mg/kg, iv or 10 mg/kg, po; format: ADME, organism-based, Canis lupus familiaris; conditions: in vivo
[34] = Unbound plasma concentration in athymic nude mouse xenografted with human MIAPaCa2 cells at 10 mg/kg, po qd after 8 hrs post-last dose; format: ADME, organism-based; conditions: in vivo
[35] = Protein binding in plasma of Beagle dog assessed as unbound fraction at […] by ultracentrifugation; format: ADME, cell-free, Canis lupus familiaris
[36] = tested on: MIA PaCa-2; test: Antitumor activity against human MIAPaCa2 cells harboring KRAS G12C point mutant xenografted in athymic nude mouse assessed as tumor regression at >= 30 mg/kg, po qd measured after 26 days; format: functional, organism-based
[37] = Tmin in plasma of athymic nude mouse xenografted with human MIAPaCa2 cells at > 10 mg/kg, po administered as single dose; format: ADME, organism-based; conditions: in vivo
[38] = tested on: MIA PaCa-2; test: Antitumor activity against human MIAPaCa2 cells harboring KRAS G12C point mutant xenografted in athymic nude mouse assessed as tumor regression at 100 mg/kg, po qd measured after 26 days relative to control; format: functional
[39] = Oral bioavailability in Sprague-Dawley rat at 10 mg/kg; format: ADME, organism-based; conditions: in vivo
[40] = tested on: Mus musculus; test: Decrease in ERK1/ERK2 phosphorylation in human MIAPaCa2 cells xenografted in athymic nude mouse at 10 to 100 mg/kg, po administered as single dose measured after 60 to 120 mins post-treatment; format: functional, organism-based

SMILES: C=CC(=O)N1CCN(c2nc(=O)n(-c3ccccc3C(C)C)c3nc(-c4c(O)cccc4F)c(Cl)cc23)[C@@H](C)C1 (stereo in doubt; (S)-18)
- t1/2 [1]: 190 h

SMILES: C=CC(=O)N1CCN(c2nc(=O)n(-c3scnc3C(C)C)c3nc(-c4c(O)cccc4F)c(Cl)cc23)[C@@H](C)C1
- bioavailability [2]: 22%
- fraction unbound [3]: 0.02
- half-life [4]: 66 min
- clearance [5]: 36.7 mL/min/kg
- Ratio [6]: 1.5
- IC50 [7]: 63 nM

SMILES: C=CC(=O)N1CCN(c2nc(=O)n(-c3c(CC)cccc3CC)c3nc(-c4c(O)cccc4F)c(Cl)cc23)[C@@H](C)C1
- bioavailability [2]: 8%
- fraction unbound [3]: 0.03
- half-life [4]: 30 min
- clearance [5]: 55 mL/min/kg
- IC50 [8]: 68 nM
- Ratio [6]: 0.8
- IC50 [7]: 36 nM

SMILES: C=CC(=O)N1CCN(c2nc(=O)n(-c3ccccc3C(C)C)c3nc(-c4c(O)cccc4F)c(Cl)cc23)[C@@H](C)C1 (stereo in doubt; (R)-18)
- bioavailability [2]: 33%
- solubility thermodynamic [9]: 184 µM (≈ 103 µg/mL)
- IC50 [10]: 14200 nM
- half-life [4]: 78 min
- hepatocyte CLint at 0.5 µM [11]: 38 µL/min/1e6 cells
- solubility thermodynamic [12]: 7 µM (≈ 3.93 µg/mL)
- clearance [5]: 6.67 mL/min/kg
- t1/2 [1]: 5 h
- IC50 [13]: 5 nM
- Vd [14]: 0.4 L/kg
- IC50 [8]: 51 nM
- hepatocyte CLint at 0.5 µM [15]: 119 µL/min/1e6 cells
- solubility thermodynamic [16]: 9 µM (≈ 5.06 µg/mL)
- Papp A→B at 2 h, up to 50 µM [17]: 9 ×10⁻⁶ cm/s
- IC50 [7]: 44 nM

SMILES: C=CC(=O)N1CCN(c2nc(=O)n(-c3c(C4CC4)ncnc3C3CC3)c3nc(-c4c(O)cccc4F)c(Cl)cc23)[C@@H](C)C1
- bioavailability [2]: 7%
- fraction unbound [3]: 0.08
- half-life [4]: 30 min
- clearance [5]: 55 mL/min/kg
- Ratio [6]: 0.6
- IC50 [7]: 36 nM

SMILES: C=CC(=O)N1CCN(c2nc(=O)n(-c3c(C)ccnc3C(C)C)c3nc(-c4c(O)cccc4F)c(F)cc23)[C@@H](C)C1 [SOTORASIB]
- half-life [18]: 200 min
- bioavailability [2]: 22 to 40%
- half-life [19]: 24 min
- solubility thermodynamic [9]: 492 µM (≈ 276 µg/mL)
- fraction unbound at […] [20]: 0.06
- IC50 [10]: 36500 nM
- clearance [21]: 56.7 mL/min/kg
- bioavailability [22]: 0.34%
- half-life [4]: 30 min
- hepatocyte CLint at 0.5 µM [11]: 9 µL/min/1e6 cells
- solubility thermodynamic [12]: 499 µM (≈ 280 µg/mL)
- clearance [5]: 26.7 mL/min/kg
- inhibition (INH) [23]: 34%
- inhibition [24]: Active
- IC50 [13]: 5 nM
- fraction unbound at […] [25]: 0.05
- TGI [26]: 86%
- half-life [27]: 30 min
- Vd [14]: 0.7 L/kg
- Tmax [28]: 30 min
- Vd [29]: 0.73 L/kg
- fraction unbound at […] [30]: 0.09
- Tmax [31]: 30 min
- hepatocyte CLint at 0.5 µM [15]: 36 µL/min/1e6 cells
- Vd [32]: 2 L/kg
- clearance [33]: 36.7 mL/min/kg
- Cp(f) [34]: < 1 nM
- fraction unbound at […] [35]: 0.17
- solubility thermodynamic [16]: 423 µM (≈ 237 µg/mL)
- Papp A→B at 2 h, up to 50 µM [17]: 6 ×10⁻⁶ cm/s
- inhibition [36]: Active
- Tmin [37]: 120 min
- inhibition (INH) [38]: 62%
- bioavailability [39]: 2.8%

SMILES: C=CC(=O)N1CCN(c2nc(=O)n(-c3c(C(C)C)ncnc3C(C)C)c3nc(-c4c(O)cccc4F)c(Cl)cc23)[C@@H](C)C1
- bioavailability [2]: 13%
- fraction unbound [3]: 0.03
- half-life [4]: 48 min
- clearance [5]: 38.3 mL/min/kg
- IC50 [8]: 21 nM
- Ratio [6]: 0.8
- IC50 [7]: 25 nM

SMILES: C=CC(=O)N1CCN(c2nc(=O)n(-c3c(C)cccc3C(C)C)c3nc(-c4c(O)cccc4F)c(Cl)cc23)[C@@H](C)C1
- bioavailability [2]: 4 to 21%
- solubility thermodynamic [9]: 204 µM (≈ 118 µg/mL)
- fraction unbound [3]: 0.03
- IC50 [10]: 11900 nM
- half-life [4]: 30 to 54 min
- hepatocyte CLint at 0.5 µM [11]: 30 µL/min/1e6 cells
- solubility thermodynamic [12]: 9 µM (≈ 5.18 µg/mL)
- clearance [5]: 23.3 to 45 mL/min/kg
- IC50 [13]: 2 nM
- inhibition [40]: Active
- Ratio [6]: 4.5
- hepatocyte CLint at 0.5 µM [15]: 102 µL/min/1e6 cells
- solubility thermodynamic [16]: 12 µM (≈ 6.91 µg/mL)
- Papp A→B at 2 h, up to 50 µM [17]: 15 ×10⁻⁶ cm/s
- IC50 [7]: 28 nM
